Laboratory results as given in US7737177B2, “Processes for preparing crystalline and amorphous mupirocin calcium” (priority 2001, dated 2010).
Where two headings read alike, the source gives them in different places. Each block holds one compound with its values, some of them ahead of it.

Legend:
[1] = according to the maker of Bactroban, cited from earlier work
[2] = thermal stability reported by Baker et al. (purity after storage); assay type: physicochemical
Description: The Baker et al. patents disclose preparing amorphous form of mupirocin calcium by crystallization from an aqueous solution consisting of 50% methanol followed by trituration with dry ether.
Baker et al. expresses its assay in relation to psuedomonic acid. The assay of the present invention is expressed differently, as illustrated by Table-1.
In connection with amorphous mupirocin calcium, the assay of the present invention can be converted into the assay expressed as in Baker et al. by multiplying with a factor of 0.9637. This 89.9% assay of Baker et al. corresponds to a 93.29% assay as calculated by the method of the present invention.
In connection with mupirocin calcium dihydrate, the 92.1% assay of Baker et al. corresponds to a 98.88% assay as expressed by the present invention.

[3] = cited from earlier work; for Purity after storage: expressed as a percentage of pure free pseudomonic acid
[4] = system: Gram positive bacteria (e.g. Staphylococcus aureus, Streptococcus pyogenes, Streptococcus pneumoniae, Klebsiella pneumoniae) and some Gram negative bacteria (e.); conditions: mainly Gram positive and some Gram negative bacteria; cited from earlier work
[5] = both for humans and animals; cited from earlier work
[6] = Baker et al., Column 1, Lines 31-33; cited from earlier work
[7] = thermal stability on storage (HPLC assay, Karl Fischer water, HPLC impurities); assay type: physicochemical; set-up: Total Impurity: unit not given here
Protocol: As used herein, the term “assay” refers to a determination of purity/presence of a quantity of a substance as described by the European Pharmacopoeia (“EP”). EUROPEAN PHARMACOPOEIA, Fourth Edition, pp 1602-1604, Council of Europe, Strasbourg, 2001. The assay is done with high pressure liquid chromatography (“HPLC”).
As used herein, the term “total impurity” refers to the sum of all areas under the peaks of impurities as described by the European Pharmacopoeia. It is determined by another HPLC method and is different than the assay.
The present invention provides for amorphous mupirocin calcium with high thermal stability. Thermal stability is defined as the ability to resist chemical degradation during storage, especially in light of the conditions during storage. The higher purity and […] of amorphous mupirocin calcium makes it less susceptible to chemical degradation during storage.
Glass ampoule in Aluminum laminate bag with silica gel was used as the packing system.
Relative humidity was exactly 60%.
The water content was measured by the Karl Fischer method.
High pressure liquid chromatography (HPLC) was performed on a Zorbax® C-8 (5 um; 250×4.6 mm), reverse phase column with ammonium acetate buffer solution in water: tetrahydrofuran mixture as eluent. Detected by U.V. spectroscopy at λ=240 nm.
The assay also used the same HPLC instruments.

[8] = 1 Kg batch, 0 months at 2–8° C.
[9] = 1 Kg batch, 0.5 months at 2–8° C.
[10] = 1 Kg batch, 0.5 months at 25° C.
[11] = 1 Kg batch, 1.0 months at 2–8° C.
[12] = 1 Kg batch, 2.0 months at 2–8° C.
[13] = 187.2 grams batch, 2° C.-8° C. 60% RH, 0 month
[14] = 187.2 grams batch, 2° C.-8° C. 60% RH, 1 month
[15] = 187.2 grams batch, 2° C.-8° C. 60% RH, 2 months
[16] = 187.2 grams batch, 2° C.-8° C. 60% RH, 3 months
[17] = 187.2 grams batch, 25° C./60% RH, 0 month
[18] = 187.2 grams batch, 25° C./60% RH, 1 month
[19] = 187.2 grams batch, 25° C./60% RH, 2 months
[20] = 187.2 grams batch, 25° C./60% RH, 3 months

SMILES: C/C(=C\C(=O)OCCCCCCCCC(=O)[O-])C[C@@H]1OC[C@H](C[C@@H]2O[C@H]2[C@@H](C)[C@H](C)O)[C@@H](O)[C@H]1O.C/C(=C\C(=O)OCCCCCCCCC(=O)[O-])C[C@@H]1OC[C@H](C[C@@H]2O[C@H]2[C@@H](C)[C@H](C)O)[C@@H](O)[C@H]1O.O.O.[Ca+2] [mupirocin calcium]
side effects ([1]; administered intravenously at 250 mg): without any major side effects | side effects ([1]; administered orally at 500 mg): without any major side effects

SMILES: C/C(=C\C(=O)OCCCCCCCCC(=O)O)C[C@@H]1OC[C@H](C[C@@H]2O[C@H]2[C@@H](C)[C@H](C)O)[C@@H](O)[C@H]1O [Pseudomonic acid A, 9-{4[5S(2S,3S-epoxy-5S-hydroxy-4S-methylhexyl)-3R,4R-dihydroxy-tetrahydropyran-2S-yl]-3-methylbut-2(E)-enoyloxy}nonanoic acid]
minimal inhibiting concentration [4]: 0.02 to 0.5 µg/mL | toxicity [5]: very low toxicity | Purity after storage ([3]; 2 weeks, 37° C.): 90.61% | Purity after storage ([3]; 2 weeks, 50° C.): 51.18% | Purity after storage ([3]; 2 weeks, 80° C.): 0% | Purity after storage ([3]; 8 days, 80° C.): 0% | Purity after storage ([3]; 10 days, 50° C.): 71.59%

SMILES: C/C(=C\C(=O)OCCCCCCCCC(=O)[O-])C[C@@H]1OC[C@H](C[C@@H]2O[C@H]2[C@@H](C)[C@H](C)O)[C@@H](O)[C@H]1O.C/C(=C\C(=O)OCCCCCCCCC(=O)[O-])C[C@@H]1OC[C@H](C[C@@H]2O[C@H]2[C@@H](C)[C@H](C)O)[C@@H](O)[C@H]1O.O.O.[Ca+2] [Anhydrous amorphous mupirocin calcium, mupirocin calcium]
water solubility [6]: sparingly water soluble | Purity after storage ([2]; 2 weeks, 37° C., expressed as a percentage of mupirocin calcium anhydrous): 91.14% | Purity after storage ([2]; 2 weeks, 50° C., expressed as a percentage of mupirocin calcium anhydrous): 74.71% | Purity after storage ([2]; 2 weeks, 80° C., expressed as a percentage of mupirocin calcium anhydrous): 13.05% | Purity after storage ([2]; 8 days, 80° C., expressed as a percentage of mupirocin calcium anhydrous): 27.05% | Purity after storage ([2]; 10 days, 50° C., expressed as a percentage of mupirocin calcium anhydrous): 77.70% | Purity after storage ([3]; 2 weeks, 37° C.): 87.83% | Purity after storage ([3]; 2 weeks, 50° C.): 72.0% | Purity after storage ([3]; 2 weeks, 80° C.): 12.58% | Purity after storage ([3]; 8 days, 80° C.): 26.07% | Purity after storage ([3]; 10 days, 50° C.): 74.88% | thermal stability ([3]; Baker et al., Column 1, Lines 31-33): poor thermal stability | deterioration at high temperatures ([3]; chart in Columns 8 and 9 of the '093 patent): rapid deterioration at high temperatures | level of impurity MUP II (impurity E in the EP) ([7]; after storage for one month): more than 1% | total level of impurities (not assay) ([7]; after two months of storage, FIGS. 9 and 10): more than 3.5%

Continued, in another order:

Purity after storage ([2]; 2 weeks, 37° C., expressed as a percentage of mupirocin calcium dihydrate): 99.08% | Purity after storage ([2]; 2 weeks, 50° C., expressed as a percentage of mupirocin calcium dihydrate): 97.60% | Purity after storage ([2]; 2 weeks, 80° C., expressed as a percentage of mupirocin calcium dihydrate): 92.95% | Purity after storage ([2]; 8 days, 80° C., expressed as a percentage of mupirocin calcium dihydrate): 95.91% | Purity after storage ([2]; 10 days, 50° C., expressed as a percentage of mupirocin calcium dihydrate): 97.79%
SMILES: C/C(=C\C(=O)OCCCCCCCCC(=O)O)C[C@@H]1OC[C@H](C[C@@H]2O[C@H]2[C@@H](C)[C@H](C)O)[C@@H](O)[C@H]1O [Crystalline mupirocin calcium dihydrate, mupirocin calcium dihydrate]
Purity after storage ([3]; 2 weeks, 37° C., calcium dihydrate): 92.28% | Purity after storage ([3]; 2 weeks, 50° C., calcium dihydrate): 90.90% | Purity after storage ([3]; 2 weeks, 80° C., calcium dihydrate): 86.57% | Purity after storage ([3]; 8 days, 80° C., calcium dihydrate): 89.33% | Purity after storage ([3]; 10 days, 50° C., calcium dihydrate): 91.08%

Assay [7, 8]: 98.5 | Water [7, 8]: 1.2 | Assay ([7]; 1 Kg batch, 0 months at 25° C.): 98.5 | Water ([7]; 1 Kg batch, 0 months at 25° C.): 1.5 | Assay [7, 9]: 95.2 | Total Impurity [7, 9]: 2.71 | Water [7, 9]: 1.3 | Assay [7, 10]: 97.4 | Total Impurity [7, 10]: 2.83 | Water [7, 10]: 1.2 | Assay ([7]; 1 Kg batch, 1 month at 25° C.): 98.3 | Total Impurity ([7]; 1 Kg batch, 1 month at 25° C.): 3.18 | Water ([7]; 1 Kg batch, 1 month at 25° C.): 1.9 | Assay [7, 11]: 95.5 | Total Impurity [7, 11]: 2.88 | Water [7, 11]: 1.9 | Assay [7, 12]: 96.7 | Total Impurity [7, 12]: 2.86 | Water [7, 12]: 1.6 | Assay ([7]; 1 Kg batch, 2 months at 25° C.): 96.5 | Total Impurity ([7]; 1 Kg batch, 2 months at 25° C.): 3.21 | Water ([7]; 1 Kg batch, 2 months at 25° C.): 1.5 | Assay (HPLC) [7, 13]: 96.0% | Description [7, 13]: White | Impurities (HPLC) Imp. C [7, 13]: 1.31% | Impurities (HPLC) MUP II [7, 13]: 0.31% | Impurities (HPLC) Total Impurities [7, 13]: 2.22% | Water [7, 13]: 0.6% | Assay (HPLC) [7, 14]: 95.6% | Description [7, 14]: White | Water [7, 14]: 0.8% | Assay (HPLC) [7, 15]: 95.3% | Description [7, 15]: White | Impurities (HPLC) Imp. C [7, 15]: 1.32% | Impurities (HPLC) MUP II [7, 15]: 0.41% | Impurities (HPLC) Total Impurities [7, 15]: 2.43% | Water [7, 15]: 0.7% | Assay (HPLC) [7, 16]: 96.1% | Description [7, 16]: White | Impurities (HPLC) Imp. C [7, 16]: 1.35% | Impurities (HPLC) MUP II [7, 16]: 0.42% | Impurities (HPLC) Total Impurities [7, 16]: 2.62% | Water [7, 16]: 1.1% | Assay (HPLC) [7, 17]: 96.0% | Description [7, 17]: White powder | Impurities (HPLC) Imp. C [7, 17]: 1.31% | Impurities (HPLC) MUP II [7, 17]: 0.31% | Impurities (HPLC) Total Impurities [7, 17]: 2.22% | Water [7, 17]: 0.6% | Assay (HPLC) [7, 18]: 97.5% | Description [7, 18]: White | Water [7, 18]: 0.8% | Assay (HPLC) [7, 19]: 94.1% | Description [7, 19]: White | Impurities (HPLC) Imp. C [7, 19]: 1.34% | Impurities (HPLC) MUP II [7, 19]: 0.77% | Impurities (HPLC) Total Impurities [7, 19]: 3.02% | Water [7, 19]: 0.8% | Assay (HPLC) [7, 20]: 95.9% | Description [7, 20]: White | Impurities (HPLC) Imp. C [7, 20]: 1.37% | Impurities (HPLC) MUP II [7, 20]: 0.89% | Impurities (HPLC) Total Impurities [7, 20]: 3.25% | Water [7, 20]: 1.0% | total impurity content ([7]; after 2 months): about 3% | Assay ([7]; after 2 months of storage at about 25° C. and at about 2-8° C.): about 96% | total level of impurity (not assay) ([7]; after at least two months of storage at 25° C.): less than 3.5% | level of impurity MUP II (impurity E in the EP) ([7]; storage at 25° C. and RH 60% for at least two months): ≤ 1%
SMILES: C/C(=C\C(=O)OCCCCCCCCC(=O)[O-])C[C@@H]1OC[C@H](C[C@@H]2O[C@H]2[C@@H](C)[C@H](C)O)[C@@H](O)[C@H]1O.C/C(=C\C(=O)OCCCCCCCCC(=O)[O-])C[C@@H]1OC[C@H](C[C@@H]2O[C@H]2[C@@H](C)[C@H](C)O)[C@@H](O)[C@H]1O.O.O.[Ca+2] [amorphous mupirocin calcium, mupirocin calcium]
